Columns and labels:
Assay type in all cases: cell-based
[1] = molecular target: T1, 17β-hydroxysteroid dehydrogenase type 2 (17β-HSD type 2) (Homo sapiens, UniProt P37059); assay: Inhibition of 17β-HSD type 2 in MCF-7 cells stably expressing the isoenzyme (tritium labeled estradiol conversion, HPLC); details: MCF7, MCF-7 cells expressing 17β-HSD type 2, 2 nM tritium labeled estradiol; for inhibition at 1 µM: 1 μM test compound, read-out: % Inhibition HSD2 1 μM; for inhibition at 10 µM: 10 μM test compound, read-out: % Inhibition HSD2 10 μM
T1 construct: expressed in transfected cells; host or cells: MCF-7
T1 sequence (P37059 1-387): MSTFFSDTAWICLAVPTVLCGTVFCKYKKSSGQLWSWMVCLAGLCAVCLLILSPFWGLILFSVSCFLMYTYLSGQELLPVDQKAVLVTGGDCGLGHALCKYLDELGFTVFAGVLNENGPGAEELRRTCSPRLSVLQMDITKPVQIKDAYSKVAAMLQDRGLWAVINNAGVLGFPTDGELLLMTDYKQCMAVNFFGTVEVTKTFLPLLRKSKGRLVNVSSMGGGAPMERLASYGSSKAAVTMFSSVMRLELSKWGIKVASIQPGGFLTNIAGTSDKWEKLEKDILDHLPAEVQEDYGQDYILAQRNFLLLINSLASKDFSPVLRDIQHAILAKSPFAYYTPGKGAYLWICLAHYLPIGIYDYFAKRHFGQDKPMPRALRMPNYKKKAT
How it was run: (§1)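 MCF-7 lines stably expressing each 17β-HSD isoenzyme incubated in growth medium with compound at two concentrations and 2 nM tritiated substrate (estrone, type 1; estradiol, type 2; androstenedione, type 3). Reaction stopped with TCA; conversion measured by HPLC with flow scintillation, inhibition relative to compound-free control.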

[2] = molecular target: T2, 17β-hydroxysteroid dehydrogenase type 1 (17β-HSD type 1) (Homo sapiens, UniProt P14061); assay: Inhibition of 17β-HSD type 1 in MCF-7 cells stably expressing the isoenzyme (tritium labeled estrone conversion, HPLC); details: MCF7, MCF-7 cells expressing 17β-HSD type 1, 2 nM tritium labeled estrone; for inhibition at 1 µM: 1 μM test compound, read-out: % Inhibition HSD1 1 μM; for inhibition at 10 µM: 10 μM test compound, read-out: % Inhibition HSD1 10 μM
T2 construct: expressed in transfected cells; host or cells: MCF-7
T2 sequence (P14061 1-328): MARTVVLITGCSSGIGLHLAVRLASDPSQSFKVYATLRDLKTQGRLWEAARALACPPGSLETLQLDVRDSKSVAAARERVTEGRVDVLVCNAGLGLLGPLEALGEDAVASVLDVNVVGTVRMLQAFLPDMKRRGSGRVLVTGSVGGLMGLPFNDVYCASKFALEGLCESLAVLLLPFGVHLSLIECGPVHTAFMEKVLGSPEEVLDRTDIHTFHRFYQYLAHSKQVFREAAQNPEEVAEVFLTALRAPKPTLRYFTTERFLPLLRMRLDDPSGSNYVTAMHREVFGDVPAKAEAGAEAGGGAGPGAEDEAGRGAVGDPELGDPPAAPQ
How it was run: as §1

[3] = molecular target: T3, 17β-hydroxysteroid dehydrogenase type 3 (17β-HSD type 3) (Homo sapiens, UniProt P37058); assay: Inhibition of 17β-HSD type 3 in MCF-7 cells stably expressing the isoenzyme (tritium labeled androstenedione conversion, HPLC); details: MCF7, MCF-7 cells expressing 17β-HSD type 3, 2 nM tritium labeled androstenedione; for inhibition at 1 µM: 1 μM test compound, read-out: % Inhibition HSD3 1 μM; for inhibition at 10 µM: 10 μM test compound, read-out: % Inhibition HSD3 10 μM
T3 construct: expressed in transfected cells; host or cells: MCF-7
T3 sequence (P37058 1-310): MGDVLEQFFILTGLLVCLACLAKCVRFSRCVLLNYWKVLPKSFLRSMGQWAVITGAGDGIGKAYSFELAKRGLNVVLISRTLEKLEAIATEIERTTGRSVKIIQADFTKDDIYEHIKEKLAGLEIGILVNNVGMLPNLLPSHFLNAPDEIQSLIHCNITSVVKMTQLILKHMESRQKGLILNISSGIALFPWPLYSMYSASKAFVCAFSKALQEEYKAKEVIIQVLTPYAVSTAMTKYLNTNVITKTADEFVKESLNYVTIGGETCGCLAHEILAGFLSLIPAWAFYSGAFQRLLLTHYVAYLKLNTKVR
How it was run: as §1

Row | inhibition at 1 µM [1] [%] | inhibition at 10 µM [1] [%] | inhibition at 1 µM [2] [%] | inhibition at 10 µM [2] [%] | inhibition at 1 µM [3] [%] | inhibition at 10 µM [3] [%] | SMILES
1 | 7.3 | 17.4 | 0.8 | 21.1 | -8.8 | 6.3 | COc1cc(-c2nc3sc4c(c3c(=O)n2Cc2ccccc2)CCCC4)cc(OC)c1OC [No. 1, 3-benzyl-2-(3,4,5-trimethoxyphenyl)-5,6,7,8-tetrahydro-3H-benzo[4,5]thieno[2,3-d]pyrimidin-4-one]
2 | 55.2 | 80.3 | 14.7 | 29.6 | 19.1 | 33.4 | O=c1c2c(nc(-c3cccs3)n1Cc1ccccc1)sc1c(O)cccc12 [No. 67, 3-Benzyl-8-hydroxy-2-thiophen-2-yl-3H-benzo[4,5]thieno[2,3-d]pyrimidine-4-one]
3 | 20.2 | 23.1 | 14.5 | 11.9 | 5 | 17 | COCCn1c(-c2cccs2)nc2sc3c(c2c1=O)CCCC3=O [No. 75, 3-(2-Methoxyethyl)-2-thiophen-2-yl-6,7-dihydro-3H,5H-benzo[4,5]thieno[2,3-d]pyrimidine-4,8-dione]
4 | 15.5 | 25.3 | 15.5 | 55.9 | 2.4 | 32 | COc1cc(-c2nc3sc4c(c3c(=O)n2CC(C)C)CCCC4=O)cc(OC)c1OC [No. 114, 3-Isobutyl-2-(3,4,5-trimethoxyphenyl)-6,7-dihydro-3H,5H-benzo[4,5]thieno[2,3-d]pyrimidine-4,8-dione]
5 | 0.2 | 17.6 | 40.2 | 73.3 | 8.3 | 42.4 | COc1cc(-c2nc3sc4c(O)cccc4c3c(=O)n2Cc2ccccc2)c(Cl)c(OC)c1OC [No. 124, 3-Benzyl-2-(2-chloro-3,4,5-trimethoxyphenyl)-8-hydroxy-3H-benzo[4,5]thieno[2,3-d]pyrimidin-4-one]
6 | 16.3 | 18.7 | 17.6 | 67.3 | 1.9 | 0.1 | O=Cc1nc2c(c(=O)n1Cc1ccccc1)C1=C(CCCC1)S2(=O)=O [No. 33, 3-Benzyl-4,9,9-trioxo4,5,6,7,8,9-hexahydro-3H-9lambda*6*-benzo[4,5]thieno[2,3-d]pyrimidine-2-carbaldehyde]
7 | 22.8 | 16.9 | 23.8 | 53.9 | 16.9 | 24.9 | COc1cc(-c2nc3sc4c(c3c(=O)n2CC2CCCO2)CCC(Br)C4=O)c(Br)c(OC)c1OC (stereo not drawn) [No. 132, 7-Bromo-2-(2-bromo-3,4,5-trimethoxyphenyl)-3-(tetrahydrofuran-2-ylmethyl)-6,7-dihydro-3H,5H-benzo[4,5]thieno[2,3-d]pyrimidine-4,8-dione]
8 | 42.7 | 60.9 | 22 | 23.3 | 4.7 | 24.3 | O=c1c2c(nc(-c3ccccc3)n1Cc1ccccc1)sc1c(O)c(Br)ccc12 [No. 92, 3-Benzyl-7-bromo-8-hydroxy-2-phenyl-3H-benzo[4,5]thieno[2,3-d]pyrimidin-4-one]
9 | 13.6 | 31.1 | 23.5 | 33.7 | 12.7 | 19.3 | COc1cc(-c2nc3sc4c(c3c(=O)n2Cc2cccnc2)CCCC4)cc(OC)c1OC [No. 144]
10 | -6.8 | 28.7 | 8.8 | 28.6 | 14.7 | 82.3 | COCc1nc2sc3c(Cl)c(C=O)c(C(=O)O)c(O)c3c2c(=O)n1Cc1ccccc1 [No. 35, 3-Benzyl-8-chloro-7-formyl-5-hydroxyl-2-methoxymethyl-4-oxo-benzo[4,5]thieno[2,3-d]pyrimidine-6-carboxylic acid]
11 | 17.9 | 17.7 | 5.7 | 10 | 22.5 | 34.5 | O=c1c2c3c(sc2nc(-c2cc(O)c(O)c(O)c2)n1Cc1ccccc1)CCCC3 [No. 41, 3-Benzyl-2-(3,4,5-trihydroxyphenyl)-5,6,7,8-tetrahydro-3H-benzo[4,5]thieno[2,3-d]pyrimidin-4-one]
12 | 4.1 | 9.7 | -7.5 | 15.4 | 17.1 | 30.9 | Cc1nc2sc3c(c2c(=O)n1-c1ccccc1)CCCC3 [No. 24, 2-Methyl-3-phenyl-5,6,7,8-tetrahydro-3H-benzo[4,5]thieno[2,3-d]pyrimidin-4-one]
13 | 2.1 | -6.3 | 7 | 22.6 | -5.3 | 11.9 | CCCCn1c(-c2cc(OC)c(OC)c(OC)c2)nc2sc3c(c2c1=O)CC(C)CC3 (stereo not drawn) [No. 691, 3-Butyl-6-methyl-2-(3,4,5-trimethoxyphenyl)-5,6,7,8-tetrahydro-3H-benzo[4,5]thieno[2,3-d]pyrimidin-4-one]
14 | 13.1 | 17.9 | 15.3 | 39.4 | -4.1 | 44.2 | O=C(OCCn1c(-c2cccs2)nc2sc3c(c2c1=O)CCCC3=O)c1cccs1 [No. 70, Thiophene-2-carboxylic acid 2-(4,8-dioxo-2-thiohen-2-yl-5,6,7,8-tetrahydro-4H-benzo[4,5]thieno[2,3-d]pyrimidin-3-yl)-ethyl ester]
15 | 17 | 59.8 | 35.4 | 76.7 | 24.6 | 55.2 | COc1cc(-c2nc3sc4c(OC(C)=O)cccc4c3c(=O)n2Cc2ccccc2)cc(OC)c1OC [No. 54, Acetic acid 3-benzyl-2-(3,4,5-trimethoxyphenyl)-4-oxo-3,4-dihydro-benzo[4,5]thieno[2,3-d]pyrimidin-8-yl ester]
16 | 0.1 | 17.2 | 11.4 | 12.5 | 10.3 | 9.1 | COc1ccc(-c2nc3sc4c(c3c(=O)n2Cc2ccccc2)CCC(Br)(Br)C4=O)cc1 [No. 147, 3-Benzyl-7,7-dibromo-2-p-methoxyphenyl-6,7-dihydro-3H,5H-benzo[4,5]thieno[2,3-d]pyrimidine-4,8-dione]
17 | 18.5 | 20.5 | 14.9 | 28.6 | 3.1 | 14.7 | CCCCn1c(-c2cccs2)nc2sc3c(c2c1=O)CCCC3
18 | 46.1 | 85.4 | 21.8 | 64.5 | 15.9 | 68.9 | CCCc1nc2sc3c(OC(C)=O)cccc3c2c(=O)n1Cc1cc(Br)ccc1OC [No. 99]
